Measured values taken from patent US20040028746A1, “Crystalline drug particles prepared using a controlled precipitation (recrystallization) process” (priority 2002, published 2004).

Assays:
[1] = Dissolution by turbidity method (loss in turbidity); assay type: physicochemical; details: loss in turbidity monitored for 5 minutes
Experimental: (§1) Dissolution was monitored for 5 minutes by the loss in turbidity.
as §1

[2] = Average crystalline domain size and crystallinity by X-ray diffraction; assay type: physicochemical; details: comparative particles as received or wet-milled (Table B)
Experimental: As used herein the term “essentially crystalline” is defined to mean that the particles are at least 90% crystalline as measured using X-ray diffraction techniques.
0.3 g of the drug was dissolved in 6 ml of the organic solvent, which may contain 0.3 g of a stabilizer. The organic solution was injected at 2 degrees C. with vigorous stirring into 30.0 g of the aqueous phase, which may contain a second stabilizer. The solvent was stripped from the resulting slurry, and the slurry freeze dried to yield a powder. […] Average size of the crystalline domains was determined using X-ray diffraction as known by those skilled in the art of particle size measurement, using Jade XRD pattern processing software (v.6).
as §1

Crystalline Domain [2] [Å] | Percent of Dissolution after 5 min. ([1]; Carbamazepine sample: deionized water) [%] | SMILES | Percent of Dissolution after 5 min. ([1]; Danazol samples: deionized water plus sodium dodecyl sulfate) [%]
475 | 100 | NC(=O)N1c2ccccc2C=Cc2ccccc21 [compound 23, Carbamazepine] | 
646 |  | COc1ccc2cc([C@H](C)C(=O)O)ccc2c1 [compound 22, Naproxen] | 

SMILES | Crystalline Domain [2] [Å] | Percent of Dissolution after 5 min. ([1]; Carbamazepine sample: deionized water) [%] | Percent of Dissolution after 5 min. ([1]; Danazol samples: deionized water plus sodium dodecyl sulfate) [%]
C#C[C@]1(O)CC[C@H]2[C@@H]3CCC4=Cc5oncc5C[C@]4(C)[C@H]3CC[C@@]21C [compound 24, Danazol/USP 24] | 404 |  | 91
